From patent US4749782A, “Vasopressin compounds” (Smithkline Beckman Corporation, priority 1986, dated 1988)

Biological target: T1, V2 -vasopressin receptors (Rattus norvegicus, UniProt Q00788)
T1 construct: from tissue; host or cells: whole animal (hydropenic rat)
Experiment: in vivo diuretic activity in the hydropenic rat
Conditions: measure of V2 antagonism
Method: Antagonistic activity at the V2 -vasopressin receptors is determined in a protocol which determines in vivo diuretic activity in the hydropenic rat (ED300 μg/kg). This procedure is described in the literature: F. Stassen et al., 1st International Conference on Diuretics, Miami, FL., March (1984).

T1 sequence (Q00788 whole entry): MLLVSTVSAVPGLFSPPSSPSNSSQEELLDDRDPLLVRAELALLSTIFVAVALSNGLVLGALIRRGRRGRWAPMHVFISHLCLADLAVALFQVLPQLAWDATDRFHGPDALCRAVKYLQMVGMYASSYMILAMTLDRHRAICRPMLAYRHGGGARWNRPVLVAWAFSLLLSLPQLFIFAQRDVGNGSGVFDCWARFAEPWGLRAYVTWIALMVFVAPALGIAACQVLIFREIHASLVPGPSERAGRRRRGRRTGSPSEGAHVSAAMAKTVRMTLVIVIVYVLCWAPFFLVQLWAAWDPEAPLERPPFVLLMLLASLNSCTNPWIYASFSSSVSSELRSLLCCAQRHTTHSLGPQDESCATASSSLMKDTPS

Substance	ED300 [µg/kg]
[1-(β,β-diethyl β-mercaptopropionic acid)-2-(O-ethyl-D-tyrosine)-4-valine-8-arginine-9-desglycine]-vasopressin [Compound B]	11.9
[1-(β,β-diethyl-β-mercaptopropionic acid)-2-(O-ethyl-L-tyrosine)-4-valine-8-arginine] vasopressin [Compound C]	120.5
[1-(β,β-dimethyl-β-mercaptopropionic acid)-2-(O-ethyl-D-tyrosine)-4-valine-8-arginine]vasopressin [Compound D, reference compound]	4950
